Test results taken from PubChem BioAssay (NCI).
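How tested: cells in 96-well plates exposed to compound for 48 hours at five concentrations. At the GI50, growth is halved. At the TGI there is no net growth.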

Assays:
Test in all cases: NCI anticancer screen, dose series, 48 h
U251 CNS = tested on: U251 CNS
SNB-75 CNS = tested on: SNB-75 CNS
SF-268 CNS = tested on: SF-268 CNS
UACC-62 melanoma = tested on: UACC-62 melanoma
HCT-116 colon = tested on: HCT-116 colon
SK-MEL-2 melanoma = tested on: SK-MEL-2 melanoma
IGROV1 ovarian = tested on: IGROV1 ovarian
K-562 leukemia = tested on: K-562 leukemia
CCRF-CEM leukemia = tested on: CCRF-CEM leukemia
NCI/ADR-RES ovarian = tested on: NCI/ADR-RES ovarian

CN(C)c1nc(=Nc2ccc3ccccc3c2)ss1
TGI (U251 CNS): > 100 µM | TGI (SNB-75 CNS): > 100 µM | TGI (SF-268 CNS): > 100 µM | TGI (UACC-62 melanoma): > 100 µM | TGI (HCT-116 colon): > 100 µM | TGI (SK-MEL-2 melanoma): > 100 µM | TGI (IGROV1 ovarian): > 100 µM | TGI (K-562 leukemia): > 100 µM | TGI (CCRF-CEM leukemia): 73.5 µM

c1ccc(SC(CCCCC(Sc2ccccc2)Sc2ccccc2)Sc2ccccc2)cc1
TGI (U251 CNS): > 100 µM | TGI (SNB-75 CNS): > 100 µM | TGI (SF-268 CNS): > 100 µM | TGI (UACC-62 melanoma): > 100 µM | TGI (HCT-116 colon): > 100 µM | TGI (SK-MEL-2 melanoma): > 100 µM | TGI (K-562 leukemia): > 100 µM | TGI (CCRF-CEM leukemia): > 100 µM

COc1ccc(OC)c(NC(=O)CCC/C(CC(=O)c2ccc(O)c(OC)c2)=N\NC(=O)C[N+](C)(C)C)c1
TGI (U251 CNS): > 100 µM | TGI (SNB-75 CNS): > 100 µM | TGI (SF-268 CNS): > 100 µM | TGI (UACC-62 melanoma): > 100 µM | TGI (SK-MEL-2 melanoma): > 100 µM | TGI (IGROV1 ovarian): > 100 µM | TGI (K-562 leukemia): > 100 µM | TGI (CCRF-CEM leukemia): > 100 µM

COc1cc(C(=O)C/C(CCC(=O)Nc2ccccc2[N+](=O)[O-])=N\NC(=O)CC#N)ccc1O
TGI (SNB-75 CNS): > 100 µM | TGI (SF-268 CNS): > 100 µM | TGI (UACC-62 melanoma): > 100 µM | TGI (SK-MEL-2 melanoma): > 100 µM | TGI (IGROV1 ovarian): > 100 µM | TGI (K-562 leukemia): > 100 µM | TGI (CCRF-CEM leukemia): > 100 µM

COc1ccc(C2=C(Cl)c3cc(OC)c(OC)cc3C2Cl)cc1OC (stereo not drawn)
TGI (U251 CNS): 29 µM | TGI (SNB-75 CNS): 33.4 µM | TGI (UACC-62 melanoma): 31 µM | TGI (HCT-116 colon): 30.3 µM | TGI (IGROV1 ovarian): 44.2 µM | TGI (K-562 leukemia): 48.6 µM | TGI (CCRF-CEM leukemia): 28.9 µM

c1ccc2c(c1)c(NCCCCN1CCCCC1)cc1c3ccccc3c(NCCCCN3CCCCC3)cc21
GI50 (U251 CNS): 7.67 µM | TGI (U251 CNS): 29.8 µM | GI50 (SF-268 CNS): 14.1 µM | TGI (SF-268 CNS): 32.1 µM | GI50 (UACC-62 melanoma): 19.5 µM | TGI (UACC-62 melanoma): 35.4 µM | GI50 (NCI/ADR-RES ovarian): 16.6 µM | TGI (NCI/ADR-RES ovarian): 38.4 µM | GI50 (HCT-116 colon): 5.22 µM | TGI (HCT-116 colon): 32.7 µM | GI50 (SK-MEL-2 melanoma): 69.3 µM | TGI (SK-MEL-2 melanoma): > 100 µM | GI50 (IGROV1 ovarian): 36.9 µM | TGI (IGROV1 ovarian): > 100 µM | GI50 (K-562 leukemia): 7.85 µM | TGI (K-562 leukemia): > 100 µM | GI50 (CCRF-CEM leukemia): 13.4 µM | TGI (CCRF-CEM leukemia): > 100 µM

CN(C)CCCN1c2ccccc2CCc2ccc(Cl)cc21
GI50 (U251 CNS): 3.8 µM | TGI (U251 CNS): 14.7 µM | GI50 (SNB-75 CNS): 1.7 µM | TGI (SNB-75 CNS): 8.77 µM | GI50 (SF-268 CNS): 4.92 µM | TGI (SF-268 CNS): 18.2 µM | GI50 (UACC-62 melanoma): 1.61 µM | TGI (UACC-62 melanoma): 3.31 µM | GI50 (NCI/ADR-RES ovarian): 3.33 µM | TGI (NCI/ADR-RES ovarian): 14.8 µM | GI50 (HCT-116 colon): 3.53 µM | TGI (HCT-116 colon): 12.3 µM | GI50 (SK-MEL-2 melanoma): 3.01 µM | TGI (SK-MEL-2 melanoma): 7.51 µM | GI50 (IGROV1 ovarian): 7.09 µM | TGI (IGROV1 ovarian): 22 µM | GI50 (CCRF-CEM leukemia): 3.07 µM | TGI (CCRF-CEM leukemia): 12 µM

CCOC(=O)c1oc2ccc(OC)c3c2c1CCC3
TGI (U251 CNS): > 100 µM | TGI (SNB-75 CNS): > 100 µM | TGI (SF-268 CNS): > 100 µM | TGI (UACC-62 melanoma): > 100 µM | TGI (SK-MEL-2 melanoma): > 100 µM | TGI (IGROV1 ovarian): > 100 µM | TGI (K-562 leukemia): > 100 µM | TGI (CCRF-CEM leukemia): > 100 µM

CN(C)c1ccc2c(c1)Sc1cc(N(C)C)ccc1N2C(=O)c1ccccc1
GI50 (U251 CNS): 45.5 µM | TGI (U251 CNS): > 100 µM | GI50 (SNB-75 CNS): 15.4 µM | TGI (SNB-75 CNS): 66.3 µM | GI50 (SF-268 CNS): 30.3 µM | TGI (SF-268 CNS): > 100 µM | GI50 (UACC-62 melanoma): 17.5 µM | TGI (UACC-62 melanoma): > 100 µM | GI50 (NCI/ADR-RES ovarian): 33.7 µM | TGI (NCI/ADR-RES ovarian): > 100 µM | GI50 (HCT-116 colon): 25 µM | TGI (HCT-116 colon): > 100 µM | GI50 (IGROV1 ovarian): 14.1 µM | TGI (IGROV1 ovarian): 77.6 µM | GI50 (K-562 leukemia): 2.69 µM | TGI (K-562 leukemia): > 100 µM | GI50 (CCRF-CEM leukemia): > 100 µM | TGI (CCRF-CEM leukemia): > 100 µM

C=C1COC(/C=C(\C)CC/C=C(\C)CCl)C1 (stereo not drawn)
TGI (U251 CNS): > 100 µM | TGI (SNB-75 CNS): > 100 µM | TGI (SF-268 CNS): > 100 µM | TGI (UACC-62 melanoma): > 100 µM | TGI (HCT-116 colon): > 100 µM | TGI (SK-MEL-2 melanoma): > 100 µM | TGI (IGROV1 ovarian): > 100 µM | TGI (K-562 leukemia): > 100 µM | TGI (CCRF-CEM leukemia): > 100 µM

Brc1cccc(C2SCc3nc4ccccc4n32)c1 (stereo not drawn)
TGI (U251 CNS): 36.3 µM | TGI (SNB-75 CNS): 3.51 µM | TGI (SF-268 CNS): > 100 µM | TGI (UACC-62 melanoma): 31 µM | TGI (HCT-116 colon): 29.4 µM | TGI (IGROV1 ovarian): 98.9 µM | TGI (K-562 leukemia): > 100 µM | TGI (CCRF-CEM leukemia): > 100 µM

O=C1OC(CCCl)(c2ccccc2)CC1CN1CCOCC1 (stereo not drawn)
TGI (U251 CNS): > 100 µM | TGI (SNB-75 CNS): 51.7 µM | TGI (SF-268 CNS): > 100 µM | TGI (UACC-62 melanoma): 49.4 µM | TGI (SK-MEL-2 melanoma): 57.5 µM | TGI (IGROV1 ovarian): 50.1 µM | TGI (K-562 leukemia): 61.3 µM | TGI (CCRF-CEM leukemia): 41.6 µM

O=C(/C(=C/c1ccc([N+](=O)[O-])cc1)c1ccccc1)c1ccccc1
GI50 (SNB-75 CNS): 2.11 µM | TGI (SNB-75 CNS): 7.32 µM | GI50 (SF-268 CNS): 3.55 µM | TGI (SF-268 CNS): > 100 µM | GI50 (NCI/ADR-RES ovarian): 3.23 µM | TGI (NCI/ADR-RES ovarian): > 100 µM | GI50 (IGROV1 ovarian): 3.25 µM | TGI (IGROV1 ovarian): > 100 µM | GI50 (K-562 leukemia): 3.08 µM | TGI (K-562 leukemia): > 100 µM | GI50 (CCRF-CEM leukemia): 2.25 µM | TGI (CCRF-CEM leukemia): > 100 µM

Cc1c(C#N)c(=O)[nH]c(=O)n1CCN1CCN(C(=O)NCCCCCCNC(=O)N2CCN(CCn3c(C)c(C#N)c(=O)[nH]c3=O)CC2)CC1
TGI (U251 CNS): > 100 µM | TGI (SNB-75 CNS): > 100 µM | TGI (UACC-62 melanoma): > 100 µM | TGI (HCT-116 colon): > 100 µM | TGI (IGROV1 ovarian): > 100 µM | TGI (K-562 leukemia): > 100 µM | TGI (CCRF-CEM leukemia): > 100 µM

CCN(C(=O)N1CCN(c2cc3c(cc2F)c(=O)c(C(=O)O)cn3C2CC2)CC1)c1nc(-c2ccc(C)cc2)cs1
GI50 (U251 CNS): 1.04 µM | TGI (U251 CNS): > 20.9 µM | GI50 (SNB-75 CNS): 1.09 µM | TGI (SNB-75 CNS): 5.08 µM | GI50 (SF-268 CNS): 1.06 µM | TGI (SF-268 CNS): > 100 µM | GI50 (UACC-62 melanoma): 0.837 µM | TGI (UACC-62 melanoma): > 100 µM | GI50 (HCT-116 colon): 1.04 µM | TGI (HCT-116 colon): > 40.1 µM | GI50 (SK-MEL-2 melanoma): 2.5 µM | TGI (SK-MEL-2 melanoma): 7.38 µM | GI50 (IGROV1 ovarian): 0.354 µM | TGI (IGROV1 ovarian): > 100 µM | GI50 (K-562 leukemia): 0.431 µM | TGI (K-562 leukemia): > 100 µM | GI50 (CCRF-CEM leukemia): 0.356 µM | TGI (CCRF-CEM leukemia): > 100 µM

CCCCCCc1cc(C(=O)Nc2cccc(C(F)(F)F)c2)nc(N)n1
TGI (U251 CNS): > 100 µM | TGI (SNB-75 CNS): > 100 µM | TGI (SF-268 CNS): > 100 µM | TGI (UACC-62 melanoma): > 100 µM | TGI (HCT-116 colon): > 100 µM | TGI (SK-MEL-2 melanoma): > 100 µM | TGI (IGROV1 ovarian): > 100 µM | TGI (K-562 leukemia): > 100 µM | TGI (CCRF-CEM leukemia): > 100 µM

CS(=O)(=O)Oc1cccc(/C=N/N=C(\N)NO)c1
TGI (U251 CNS): > 100 µM | TGI (SNB-75 CNS): > 100 µM | TGI (SF-268 CNS): > 100 µM | TGI (UACC-62 melanoma): 19.5 µM | TGI (HCT-116 colon): > 100 µM | TGI (SK-MEL-2 melanoma): > 100 µM | TGI (IGROV1 ovarian): > 100 µM | TGI (K-562 leukemia): > 100 µM | TGI (CCRF-CEM leukemia): > 100 µM

Nn1c(-c2ccccc2Cl)nc2ccccc2c1=O
TGI (U251 CNS): > 100 µM | TGI (SNB-75 CNS): > 100 µM | TGI (SF-268 CNS): > 100 µM | TGI (UACC-62 melanoma): > 100 µM | TGI (HCT-116 colon): > 100 µM | TGI (SK-MEL-2 melanoma): > 100 µM | TGI (IGROV1 ovarian): > 100 µM | TGI (K-562 leukemia): > 100 µM | TGI (CCRF-CEM leukemia): > 100 µM

COc1cc2c(cc1OC(=O)CC(C)O)C1C(OC2=O)C(OC(C)=O)C=C2CCN(C)[C@H]21 (stereo partly drawn)
TGI (U251 CNS): 61.4 µM | TGI (SNB-75 CNS): 38.4 µM | TGI (SF-268 CNS): > 100 µM | TGI (UACC-62 melanoma): > 100 µM | TGI (HCT-116 colon): > 100 µM | TGI (SK-MEL-2 melanoma): 41.5 µM | TGI (IGROV1 ovarian): 70.4 µM | TGI (K-562 leukemia): > 100 µM | TGI (CCRF-CEM leukemia): > 100 µM

CCCCCCCCCCCC(=O)OCCOCCOCCOCCOCCOCc1ccc(OC)cc1
TGI (U251 CNS): > 100 µM | TGI (SNB-75 CNS): > 100 µM | TGI (SF-268 CNS): > 100 µM | TGI (UACC-62 melanoma): > 100 µM | TGI (HCT-116 colon): > 100 µM | TGI (SK-MEL-2 melanoma): > 100 µM | TGI (IGROV1 ovarian): > 100 µM | TGI (K-562 leukemia): > 100 µM | TGI (CCRF-CEM leukemia): > 100 µM
